Test results as given in patent US7951232B2, “Surface coating compositions and methods” (Elevance Renewable Sciences, Inc., priority 2006, dated 2011).

What was measured:
Experiment in all cases: Time-Kill Procedure (ASTM), rate of kill
[1] = test system: Escherichia coli 0157:H7, ATCC 43895; assay type: cell-based
Description: (§1) The rate of kill for these organisms upon exposure to 9-decenoic acid was determined using the American Society for Testing and Materials (ASTM) procedure entitled “Standard Test Method for the Assessment of Microbiocidal Activity of Test Materials Using a Time-Kill Procedure”, October 1998. This procedure incorporates the recommendations described in the “Manual of Clinical Microbiology,”5th ed., edited by A. B. Balows et al., ASM, Washington, and is directed by the Federal Register, June 1994.
(§2) Stock cultures were transferred into TSB and incubated for 18-24 hours at 37±2° C. A second transfer was made onto TSA plates and were incubated for 18-24 hours at 37±2° C. The plates were removed from incubation and the bacterial growth washed from the agar surface using Butterfield's Phosphate Buffered Dilution Water (PBDW). The bacterial suspension was adjusted to contain approximately 10^8 Colony Forming Units (CFU)/ml with PBDW using spectrophometric methods extant in the laboratory.
(§3) The concentrated 9-decenoic acid was diluted 1:40 in filter sterilized isopropanol to yield a 2.5% stock solution. Subsequent dilutions to the 9-decenoic acid stock solutions were made with sterile Deionized Water (DI) to achieve concentrations of 0.1%, 0.05%, 0.01%, and 0.001%. The pH was determined for each dilution; pH values ranged from 4.4-4.1. Additionally, the 9-decenoic acid stock solution was adjusted to pH 7 with 1 N NaOH and serially diluted with sterile DI to achieve concentrations of 1.0%, 0.75% and 0.5%.
(§4) Compliant with the ASTM procedure cited, for each challenge microorganism a 9.9 ml aliquot of the prepared 9-decenoic acid suspension was added to a sterile tube. A 0.1 ml aliquot of the standardized inoculum was added to the 9-decenoic acid solution representing the start of the test exposure. The inoculated 9-decenoic acid solution was immediately mixed thoroughly. The inoculated suspension was held at room temperature for 0.5, 2, 5, 7 and 10 minute exposure times for tests run at ˜pH 4. The pH 7 tests were held at room temperature for 0.5 and 2 minutes.
(§5) At each exposure sample time, a 1.0 ml aliquot of the inoculated 9-decenoic acid suspension was transferred to 9.0 ml of D/E Neutralizing Broth. Additional ten-fold serial dilutions were made in PBDW and plated in duplicate on TSA. All plates were incubated for 48 hours at 37±2° C. and visually examined for growth. The plates are enumerated, recorded and log kill determined for each time point.
(§6) The following study controls were conducted: culture purity, neutralizer sterility, initial suspension population, test population, neutralization verification and a negative control using isopropanol. Culture purity was verified by performing a streak plate for isolated colonies on the each culture used. All cultures were determined to be pure based on consistent colony morphology typical for the test organism. The neutralizer sterility was confirmed by no growth in an incubated sample.
(§7) The population of the initial and test culture were determined by serial dilution, plating and enumerating after incubation. The initial suspension were determined to be ≧10^4 CFU/ml. The test culture population was used for calculation of the log reduction achieved at each time point.
(§8) Neutralization effectiveness was verified by a filtration test. For each organism, four tubes were prepared with 9 ml D/E Neutralizing Broth and fewer than 100 CFU/ml of the organism. A 1.0 ml aliquot of prepared 9-decenoic acid was added to each tube. Immediately, the entire contents of 2 tubes were filtered through a filtration apparatus and rinsed with sterile diluent. The remaining 2 tubes were held at room temperature for 30 minutes and then the entire contents were filtered using the same procedure. The filters were aseptically transferred to TSA plates and incubated for 48 hours at 37±2° C. and visually examined for growth.
(§9) This control was inoculated, subcultured and incubated as in the test procedure.

[2] = test system: Candida albicans, ATCC 10231; assay type: cell-based
Description: as §1, §2, §3, §4, §5, §6, §7, §8, §9

[3] = test system: Pseudomonas aeroginosa, ATCC 15442; assay type: cell-based, Pseudomonas aeruginosa
Description: as §1, §2, §3, §4, §5, §6, §7, §8, §9

[4] = 0.01%, pH 4.4, exposure 0.5 minutes
[5] = 0.01%, pH 4.4, exposure 2 minutes
[6] = 0.01%, pH 4.4, exposure 5 minutes
[7] = 0.01%, pH 4.4, exposure 7 minutes
[8] = 0.01%, pH 4.4, exposure 10 minutes
[9] = 0.05%, pH 4.1, exposure 0.5 minutes
[10] = 0.05%, pH 4.1, exposure 2 minutes
[11] = 0.05%, pH 4.1, exposure 5 minutes
[12] = 0.05%, pH 4.1, exposure 7 minutes
[13] = 0.05%, pH 4.1, exposure 10 minutes
[14] = 0.1%, pH 4.1, exposure 0.5 minutes
[15] = 0.1%, pH 4.1, exposure 2 minutes
[16] = 0.1%, pH 4.1, exposure 5 minutes
[17] = 0.1%, pH 4.1, exposure 7 minutes
[18] = 0.1%, pH 4.1, exposure 10 minutes

SMILES: C=CCCCCCCCC(=O)O [9-decenoic acid]
- Log reduction of organisms after exposure [1, 4]: 1.3 log
- Log reduction of organisms after exposure [1, 5]: 1.6 log
- Log reduction of organisms after exposure [1, 6]: 2.2 log
- Log reduction of organisms after exposure [1, 7]: 1.8 log
- Log reduction of organisms after exposure [1, 8]: 2.7 log
- Log reduction of organisms after exposure [1, 9]: >6.2 log
- Log reduction of organisms after exposure [1, 10]: >6.2 log
- Log reduction of organisms after exposure [1, 11]: >6.2 log
- Log reduction of organisms after exposure [1, 12]: >6.2 log
- Log reduction of organisms after exposure [1, 13]: >6.2 log
- Log reduction of organisms after exposure [1, 14]: >6.2 log
- Log reduction of organisms after exposure [1, 15]: >6.2 log
- Log reduction of organisms after exposure [1, 16]: >6.2 log
- Log reduction of organisms after exposure [1, 17]: >6.2 log
- Log reduction of organisms after exposure [1, 18]: >6.2 log
- Log reduction of organisms after exposure [2, 4]: 1.0 log
- Log reduction of organisms after exposure [2, 5]: 2.9 log
- Log reduction of organisms after exposure [2, 6]: >6.7 log
- Log reduction of organisms after exposure [2, 7]: >6.7 log
- Log reduction of organisms after exposure [2, 8]: >6.7 log
- Log reduction of organisms after exposure [2, 9]: >6.7 log
- Log reduction of organisms after exposure [2, 10]: >6.7 log
- Log reduction of organisms after exposure [2, 11]: >6.7 log
- Log reduction of organisms after exposure [2, 12]: >6.7 log
- Log reduction of organisms after exposure [2, 13]: >6.7 log
- Log reduction of organisms after exposure [2, 14]: >6.7 log
- Log reduction of organisms after exposure [2, 15]: >6.7 log
- Log reduction of organisms after exposure [2, 16]: >6.7 log
- Log reduction of organisms after exposure [2, 17]: >6.7 log
- Log reduction of organisms after exposure [2, 18]: >6.7 log
- Log reduction of organisms after exposure [3, 4]: >6.1 log
- Log reduction of organisms after exposure [3, 5]: >6.1 log
- Log reduction of organisms after exposure [3, 6]: >6.1 log
- Log reduction of organisms after exposure [3, 7]: >6.1 log
- Log reduction of organisms after exposure [3, 8]: >6.1 log
- Log reduction of organisms after exposure [3, 9]: >6.1 log
- Log reduction of organisms after exposure [3, 10]: >6.1 log
- Log reduction of organisms after exposure [3, 11]: >6.1 log
- Log reduction of organisms after exposure [3, 12]: >6.1 log
- Log reduction of organisms after exposure [3, 13]: >6.1 log
- Log reduction of organisms after exposure [3, 14]: >6.1 log
- Log reduction of organisms after exposure [3, 15]: >6.1 log
- Log reduction of organisms after exposure [3, 16]: >6.1 log
- Log reduction of organisms after exposure [3, 17]: >6.1 log
- Log reduction of organisms after exposure [3, 18]: >6.1 log
